# Tested on: B16F10 melanoma
# Assay: Chronic study in B16F10-bearing mouse model
# Assay type: in vivo
# Details: B16F10-bearing C57BL/6J mice, 4-week treatment; LBF-14 0.3 and 0.9 mg/kg, cisplatinum 0.1 mg/kg, n=10
# Method: The B16F10 cells (0.1 ml, 5×10^6 cells, cell viability >99%) were subcutaneously transplanted into the C57BL/6J mice. In the next 15 days, the length (L), width (W) and height (H) of tumours were measured with a caliper to calculate tumour volume using the formula: V = π/6×L×W×H. When the tumours grew to 150-350 mm^3, the melanoma model mice were randomly divided into five groups (n=10) and received saline, native BF-30 at 0.9 mg/kg, LBF-14 at […] doses of 0.3 and 0.9 mg/kg, and cisplatinum at the dose of 0.1 mg/kg, respectively. All the samples including the saline and different doses of LBF-14 were administered twice weekly by intra-tumour injection (50 μl) for 4 successive weeks. All melanoma model mice were weighted and sacrificed at the end of the experimental period (day 29). The anti-tumour efficacies of LBF-14 at both two doses were presented as inhibitory rates (%) which were calculated as [(A-B)/A]×100% (average tumour weight of (A) saline treated group and (B) LBF-14 treated groups, respectively). In addition, the tumours from the B16F10-bearing mice were separated and then performed H&E staining according to the standard operating procedures.
compound,measurement,value
N.N.[Cl][Pt][Cl] [cisplatinum],effect on body weight of model mice,significant decrease in body weight

# From PMC7646182, “Design and biological evaluation of novel BF-30 analogs for the treatment of malignant melanoma” (Journal of Cancer, 2020)
